Results on four compounds are retold here after ChEMBL document CHEMBL3621100, “Discovery of Novel Class I Histone Deacetylase Inhibitors with Promising in Vitro and in Vivo Antitumor Activities” (J Med Chem, 2015).

Series [1] can be described thus: Antiproliferative activity against human MOLT4 cells after 72 hrs by CCK8 assay. The series is classed as functional, MOLT-4.
A further series concerns the target T1, Histone deacetylase 7 (Homo sapiens, UniProt Q8WUI4).
T1 sequence (Q8WUI4 whole entry): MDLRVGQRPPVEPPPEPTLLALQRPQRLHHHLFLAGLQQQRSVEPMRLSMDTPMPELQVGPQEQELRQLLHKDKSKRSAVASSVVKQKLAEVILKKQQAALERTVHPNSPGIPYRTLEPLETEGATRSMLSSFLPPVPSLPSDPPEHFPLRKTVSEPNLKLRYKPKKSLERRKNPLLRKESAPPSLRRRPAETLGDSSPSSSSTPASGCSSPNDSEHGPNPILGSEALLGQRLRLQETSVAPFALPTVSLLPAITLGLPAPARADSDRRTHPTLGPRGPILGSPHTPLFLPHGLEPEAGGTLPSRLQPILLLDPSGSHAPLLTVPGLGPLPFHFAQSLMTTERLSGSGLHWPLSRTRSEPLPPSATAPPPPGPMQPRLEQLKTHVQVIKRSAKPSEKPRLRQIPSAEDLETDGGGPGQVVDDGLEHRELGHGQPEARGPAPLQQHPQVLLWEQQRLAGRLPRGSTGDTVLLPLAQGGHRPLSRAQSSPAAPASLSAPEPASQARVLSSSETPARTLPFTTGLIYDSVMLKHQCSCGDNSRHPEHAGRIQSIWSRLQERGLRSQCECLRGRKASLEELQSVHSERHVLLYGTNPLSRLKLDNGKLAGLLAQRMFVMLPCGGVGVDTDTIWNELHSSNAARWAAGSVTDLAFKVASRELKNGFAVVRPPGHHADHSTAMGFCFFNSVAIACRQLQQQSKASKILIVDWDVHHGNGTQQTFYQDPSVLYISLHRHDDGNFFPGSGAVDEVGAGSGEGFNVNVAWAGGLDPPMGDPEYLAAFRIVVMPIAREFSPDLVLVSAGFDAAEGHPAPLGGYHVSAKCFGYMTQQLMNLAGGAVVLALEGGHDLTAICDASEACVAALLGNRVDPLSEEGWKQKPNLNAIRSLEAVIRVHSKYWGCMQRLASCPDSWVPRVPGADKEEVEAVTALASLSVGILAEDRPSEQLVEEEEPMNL
Nature of the series: Inhibition of recombinant human HDAC7 after 60 mins by fluorescence assay.

The target of a further series is Histone deacetylase 4 (Homo sapiens, UniProt P56524). Nature of the series: Inhibition of recombinant human HDAC4 after 60 mins by fluorescence assay.
A further series concerns U-937. Nature of the series: Antiproliferative activity against human U937 cells after 72 hrs by CCK8 assay. Type of series: functional. In general terms: Formazan colour is commonly taken as a measure of viable cells.
The nature of series [2]: Antiproliferative activity against human WI38 cells after 72 hrs by CCK8 assay. The series is classed as cell-based, WI-38.
The target of another series is Histone deacetylase 5 (Homo sapiens, UniProt Q9UQL6). Nature of the series: Inhibition of recombinant human HDAC5 after 60 mins by fluorescence assay.
For the next series, the target named is Histone deacetylase 9 (Homo sapiens, UniProt Q9UKV0). Nature of the series: Inhibition of recombinant human HDAC9 after 60 mins by fluorescence assay.
The next series deals with DU-145. Nature of the series: Antiproliferative activity against human DU145 cells after 72 hrs by CCK8 assay. The series is classed as functional.
A further series concerns the target Histone deacetylase 2 (Homo sapiens, UniProt Q92769). Nature of the series: Inhibition of recombinant human HDAC2 after 60 mins by fluorescence assay.
The target in another series is T2, Histone deacetylase 11 (Homo sapiens, UniProt Q96DB2).
T2 sequence (Q96DB2 whole entry): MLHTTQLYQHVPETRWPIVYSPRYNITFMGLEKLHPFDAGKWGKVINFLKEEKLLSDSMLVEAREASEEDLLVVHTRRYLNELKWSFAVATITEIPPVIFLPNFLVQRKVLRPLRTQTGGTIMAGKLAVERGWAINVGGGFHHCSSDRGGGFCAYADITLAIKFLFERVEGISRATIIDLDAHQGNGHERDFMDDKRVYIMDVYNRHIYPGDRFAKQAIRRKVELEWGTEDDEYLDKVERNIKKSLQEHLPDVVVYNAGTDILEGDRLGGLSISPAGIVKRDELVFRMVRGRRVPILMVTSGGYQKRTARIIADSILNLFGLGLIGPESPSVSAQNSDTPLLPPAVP
Nature of the series: Inhibition of recombinant human HDAC11 after 60 mins by fluorescence assay.

Another series concerns the target Histone deacetylase 1 (Homo sapiens, UniProt Q13547). Nature of the series: Inhibition of recombinant human HDAC1 after 60 mins by fluorescence assay.
A further series addresses T3, Histone deacetylase 8 (Homo sapiens, UniProt Q9BY41).
T3 sequence (Q9BY41 whole entry): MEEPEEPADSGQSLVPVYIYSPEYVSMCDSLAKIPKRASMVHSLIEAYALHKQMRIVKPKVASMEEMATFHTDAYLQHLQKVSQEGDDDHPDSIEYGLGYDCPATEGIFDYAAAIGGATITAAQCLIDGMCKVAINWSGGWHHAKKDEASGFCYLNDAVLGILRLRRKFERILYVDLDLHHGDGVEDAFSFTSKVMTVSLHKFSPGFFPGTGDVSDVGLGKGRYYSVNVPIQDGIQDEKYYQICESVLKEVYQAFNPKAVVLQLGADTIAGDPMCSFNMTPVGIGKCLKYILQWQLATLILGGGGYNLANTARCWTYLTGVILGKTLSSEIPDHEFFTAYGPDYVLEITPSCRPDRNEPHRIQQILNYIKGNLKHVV
Nature of the series: Inhibition of recombinant human HDAC8 after 60 mins by fluorescence assay.

Series [3] has as its target T4, Polyamine deacetylase HDAC10 (Homo sapiens, UniProt Q969S8).
T4 sequence (Q969S8 whole entry): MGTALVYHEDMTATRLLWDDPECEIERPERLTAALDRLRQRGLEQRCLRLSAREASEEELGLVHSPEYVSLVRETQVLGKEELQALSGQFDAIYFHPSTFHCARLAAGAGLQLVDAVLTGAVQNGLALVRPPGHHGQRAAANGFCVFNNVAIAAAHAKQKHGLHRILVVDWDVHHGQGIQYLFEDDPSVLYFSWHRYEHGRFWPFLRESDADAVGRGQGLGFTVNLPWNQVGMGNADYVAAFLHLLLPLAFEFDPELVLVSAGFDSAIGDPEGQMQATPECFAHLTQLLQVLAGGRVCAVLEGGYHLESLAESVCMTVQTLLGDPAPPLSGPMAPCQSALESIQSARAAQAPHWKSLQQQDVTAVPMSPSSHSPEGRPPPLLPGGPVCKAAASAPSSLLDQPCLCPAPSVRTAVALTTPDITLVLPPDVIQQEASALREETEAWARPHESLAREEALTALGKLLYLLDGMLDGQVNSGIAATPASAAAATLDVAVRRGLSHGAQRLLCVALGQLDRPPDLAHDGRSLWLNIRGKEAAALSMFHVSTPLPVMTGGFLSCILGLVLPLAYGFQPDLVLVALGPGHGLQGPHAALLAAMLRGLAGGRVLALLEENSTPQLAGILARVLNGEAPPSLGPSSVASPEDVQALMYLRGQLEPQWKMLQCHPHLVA
Nature of the series: Inhibition of recombinant human HDAC10 after 60 mins by fluorescence assay.

The nature of series [4]: Antiproliferative activity against human HLF cells after 72 hrs by CCK8 assay. Type of series: cell-based.
For series [5], the target named is T5, Protein deacetylase HDAC6 (Homo sapiens, UniProt Q9UBN7).
T5 sequence (Q9UBN7 whole entry): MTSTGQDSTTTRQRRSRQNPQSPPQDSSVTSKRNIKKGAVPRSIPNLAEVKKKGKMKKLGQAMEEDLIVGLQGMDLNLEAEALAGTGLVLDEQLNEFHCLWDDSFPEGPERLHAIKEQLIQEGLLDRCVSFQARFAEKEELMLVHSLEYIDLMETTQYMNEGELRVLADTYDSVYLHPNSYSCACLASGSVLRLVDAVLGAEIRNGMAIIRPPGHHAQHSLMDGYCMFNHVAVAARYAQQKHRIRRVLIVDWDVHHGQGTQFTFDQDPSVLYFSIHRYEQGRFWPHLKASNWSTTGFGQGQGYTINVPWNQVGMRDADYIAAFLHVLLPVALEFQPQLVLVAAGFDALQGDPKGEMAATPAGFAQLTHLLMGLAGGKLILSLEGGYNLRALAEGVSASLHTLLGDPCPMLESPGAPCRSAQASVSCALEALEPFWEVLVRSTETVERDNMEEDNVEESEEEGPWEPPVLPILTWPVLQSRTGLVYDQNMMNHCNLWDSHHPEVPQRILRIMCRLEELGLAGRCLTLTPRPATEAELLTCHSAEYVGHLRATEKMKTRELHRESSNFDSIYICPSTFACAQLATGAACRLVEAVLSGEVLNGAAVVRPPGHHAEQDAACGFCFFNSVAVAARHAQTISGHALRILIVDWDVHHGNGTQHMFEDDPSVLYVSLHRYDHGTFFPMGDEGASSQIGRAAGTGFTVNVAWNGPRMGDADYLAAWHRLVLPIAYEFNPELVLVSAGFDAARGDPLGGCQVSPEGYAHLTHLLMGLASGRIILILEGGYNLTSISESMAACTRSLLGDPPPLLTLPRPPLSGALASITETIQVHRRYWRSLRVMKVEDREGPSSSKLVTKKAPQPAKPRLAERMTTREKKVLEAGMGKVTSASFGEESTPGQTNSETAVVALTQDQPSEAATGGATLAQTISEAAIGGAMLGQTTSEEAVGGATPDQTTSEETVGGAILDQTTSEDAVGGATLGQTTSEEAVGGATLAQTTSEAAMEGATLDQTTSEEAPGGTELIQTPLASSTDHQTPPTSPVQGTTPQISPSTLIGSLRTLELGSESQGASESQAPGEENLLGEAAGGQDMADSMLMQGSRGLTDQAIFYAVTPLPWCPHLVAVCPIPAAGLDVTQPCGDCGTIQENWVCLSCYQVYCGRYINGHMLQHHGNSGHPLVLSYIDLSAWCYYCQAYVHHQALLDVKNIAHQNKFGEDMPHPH
Nature of the series: Inhibition of recombinant human HDAC6 after 60 mins by fluorescence assay.

Chain of Histone deacetylase 5 (Q9UQL6 whole entry): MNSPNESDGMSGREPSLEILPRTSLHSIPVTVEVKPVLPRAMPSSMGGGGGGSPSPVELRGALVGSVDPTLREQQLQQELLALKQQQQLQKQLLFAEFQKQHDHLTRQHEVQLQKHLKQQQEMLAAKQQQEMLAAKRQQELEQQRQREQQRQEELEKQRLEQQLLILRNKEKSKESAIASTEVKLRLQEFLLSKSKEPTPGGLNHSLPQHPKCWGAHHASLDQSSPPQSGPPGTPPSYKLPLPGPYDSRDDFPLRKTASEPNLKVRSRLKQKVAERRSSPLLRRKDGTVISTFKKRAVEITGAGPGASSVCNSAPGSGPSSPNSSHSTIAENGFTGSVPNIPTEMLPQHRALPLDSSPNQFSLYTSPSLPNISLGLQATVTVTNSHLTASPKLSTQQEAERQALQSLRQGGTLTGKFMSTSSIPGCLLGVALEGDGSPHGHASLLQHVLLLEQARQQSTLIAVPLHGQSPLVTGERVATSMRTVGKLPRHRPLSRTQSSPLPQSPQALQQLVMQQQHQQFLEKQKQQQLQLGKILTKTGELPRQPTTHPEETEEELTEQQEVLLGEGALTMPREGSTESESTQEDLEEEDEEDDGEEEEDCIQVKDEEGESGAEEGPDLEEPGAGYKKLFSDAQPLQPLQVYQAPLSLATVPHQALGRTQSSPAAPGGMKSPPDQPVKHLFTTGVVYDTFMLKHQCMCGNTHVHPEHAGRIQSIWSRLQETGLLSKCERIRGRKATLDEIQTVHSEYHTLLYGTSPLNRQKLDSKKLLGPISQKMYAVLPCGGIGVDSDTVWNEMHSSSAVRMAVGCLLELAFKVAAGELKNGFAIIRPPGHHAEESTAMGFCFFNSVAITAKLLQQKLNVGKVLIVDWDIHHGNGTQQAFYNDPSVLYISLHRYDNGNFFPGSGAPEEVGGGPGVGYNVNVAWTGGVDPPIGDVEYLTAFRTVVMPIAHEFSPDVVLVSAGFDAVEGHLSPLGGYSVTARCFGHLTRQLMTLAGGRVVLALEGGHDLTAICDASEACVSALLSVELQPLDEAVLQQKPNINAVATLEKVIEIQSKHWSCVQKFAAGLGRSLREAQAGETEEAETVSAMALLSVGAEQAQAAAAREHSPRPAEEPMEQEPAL
Chain of Histone deacetylase 9 (Q9UKV0 whole entry): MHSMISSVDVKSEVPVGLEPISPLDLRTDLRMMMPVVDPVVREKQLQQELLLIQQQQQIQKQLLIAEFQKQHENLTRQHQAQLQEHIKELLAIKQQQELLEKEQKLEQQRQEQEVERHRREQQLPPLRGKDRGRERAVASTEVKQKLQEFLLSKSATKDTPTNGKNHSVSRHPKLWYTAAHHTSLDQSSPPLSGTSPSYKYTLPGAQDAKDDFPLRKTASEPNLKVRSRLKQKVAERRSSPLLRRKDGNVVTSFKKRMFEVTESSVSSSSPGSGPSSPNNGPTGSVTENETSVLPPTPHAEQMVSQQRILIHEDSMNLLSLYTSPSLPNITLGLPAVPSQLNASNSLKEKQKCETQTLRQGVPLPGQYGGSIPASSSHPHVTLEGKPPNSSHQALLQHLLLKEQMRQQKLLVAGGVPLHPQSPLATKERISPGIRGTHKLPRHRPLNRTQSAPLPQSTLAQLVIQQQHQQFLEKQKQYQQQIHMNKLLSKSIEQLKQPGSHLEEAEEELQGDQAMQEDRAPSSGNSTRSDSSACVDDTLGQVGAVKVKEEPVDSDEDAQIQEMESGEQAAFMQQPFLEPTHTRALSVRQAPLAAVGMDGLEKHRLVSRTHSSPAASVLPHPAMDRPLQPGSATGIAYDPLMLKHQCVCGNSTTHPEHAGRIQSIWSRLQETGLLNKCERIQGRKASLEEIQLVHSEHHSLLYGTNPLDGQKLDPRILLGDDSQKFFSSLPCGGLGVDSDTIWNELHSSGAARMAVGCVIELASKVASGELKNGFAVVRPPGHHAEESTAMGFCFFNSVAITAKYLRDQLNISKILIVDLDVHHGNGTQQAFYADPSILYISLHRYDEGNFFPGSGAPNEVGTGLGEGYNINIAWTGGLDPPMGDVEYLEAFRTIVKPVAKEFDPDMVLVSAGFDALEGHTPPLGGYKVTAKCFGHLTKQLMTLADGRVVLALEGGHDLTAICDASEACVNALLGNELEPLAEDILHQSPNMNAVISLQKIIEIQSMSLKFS
Chain of Histone deacetylase 4 (P56524 whole entry): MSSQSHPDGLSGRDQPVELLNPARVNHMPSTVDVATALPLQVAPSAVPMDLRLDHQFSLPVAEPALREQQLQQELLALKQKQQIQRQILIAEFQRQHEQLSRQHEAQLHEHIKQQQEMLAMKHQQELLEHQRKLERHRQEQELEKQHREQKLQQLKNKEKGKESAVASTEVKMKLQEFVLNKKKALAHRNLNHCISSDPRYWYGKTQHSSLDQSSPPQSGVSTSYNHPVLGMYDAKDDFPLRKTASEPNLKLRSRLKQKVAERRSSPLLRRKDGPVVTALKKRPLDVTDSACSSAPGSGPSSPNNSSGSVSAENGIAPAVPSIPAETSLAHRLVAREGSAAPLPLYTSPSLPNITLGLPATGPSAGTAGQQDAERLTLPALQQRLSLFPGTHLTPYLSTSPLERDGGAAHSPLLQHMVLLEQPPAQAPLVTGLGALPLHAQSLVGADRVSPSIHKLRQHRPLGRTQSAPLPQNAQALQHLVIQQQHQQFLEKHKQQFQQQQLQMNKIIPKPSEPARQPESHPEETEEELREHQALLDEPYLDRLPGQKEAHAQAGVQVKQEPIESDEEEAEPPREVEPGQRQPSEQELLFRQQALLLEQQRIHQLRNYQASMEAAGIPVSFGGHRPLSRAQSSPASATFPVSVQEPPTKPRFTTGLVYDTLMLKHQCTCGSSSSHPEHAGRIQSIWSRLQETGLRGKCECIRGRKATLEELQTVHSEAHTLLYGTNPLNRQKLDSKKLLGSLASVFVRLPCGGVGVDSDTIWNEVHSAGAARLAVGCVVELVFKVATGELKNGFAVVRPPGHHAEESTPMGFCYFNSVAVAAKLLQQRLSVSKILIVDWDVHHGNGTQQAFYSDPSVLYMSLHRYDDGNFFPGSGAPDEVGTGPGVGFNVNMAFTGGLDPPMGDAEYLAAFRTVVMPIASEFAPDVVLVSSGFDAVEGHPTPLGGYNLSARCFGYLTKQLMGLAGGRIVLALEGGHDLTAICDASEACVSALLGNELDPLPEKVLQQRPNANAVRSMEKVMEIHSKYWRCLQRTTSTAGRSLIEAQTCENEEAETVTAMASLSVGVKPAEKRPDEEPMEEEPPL
Chain of Histone deacetylase 1 (Q13547 whole entry): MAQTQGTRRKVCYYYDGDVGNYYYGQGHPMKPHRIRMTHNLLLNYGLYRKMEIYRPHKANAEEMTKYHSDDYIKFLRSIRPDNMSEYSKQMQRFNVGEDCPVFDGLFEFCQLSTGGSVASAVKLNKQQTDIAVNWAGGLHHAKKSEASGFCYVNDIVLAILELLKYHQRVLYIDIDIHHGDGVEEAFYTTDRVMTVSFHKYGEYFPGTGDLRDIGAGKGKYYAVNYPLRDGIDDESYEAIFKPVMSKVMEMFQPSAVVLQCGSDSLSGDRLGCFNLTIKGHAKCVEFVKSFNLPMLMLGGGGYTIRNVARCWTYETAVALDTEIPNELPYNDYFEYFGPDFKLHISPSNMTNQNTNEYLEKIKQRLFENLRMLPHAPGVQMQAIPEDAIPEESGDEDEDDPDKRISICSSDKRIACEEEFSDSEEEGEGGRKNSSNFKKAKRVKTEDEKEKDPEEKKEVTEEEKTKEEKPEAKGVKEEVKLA
Chain of Histone deacetylase 2 (Q92769 whole entry): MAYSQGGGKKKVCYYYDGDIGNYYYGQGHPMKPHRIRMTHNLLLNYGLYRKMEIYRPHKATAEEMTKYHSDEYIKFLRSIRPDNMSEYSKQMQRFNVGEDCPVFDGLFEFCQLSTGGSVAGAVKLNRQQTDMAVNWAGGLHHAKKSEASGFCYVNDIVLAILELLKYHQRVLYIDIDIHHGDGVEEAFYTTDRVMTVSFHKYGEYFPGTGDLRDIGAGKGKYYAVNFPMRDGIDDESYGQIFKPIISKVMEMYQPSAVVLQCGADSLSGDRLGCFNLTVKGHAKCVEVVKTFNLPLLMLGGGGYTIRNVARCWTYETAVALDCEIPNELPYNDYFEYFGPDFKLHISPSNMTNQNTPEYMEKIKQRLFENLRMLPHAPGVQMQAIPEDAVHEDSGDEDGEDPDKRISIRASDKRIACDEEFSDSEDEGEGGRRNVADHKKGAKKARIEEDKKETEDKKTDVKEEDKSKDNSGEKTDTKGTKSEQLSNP

The GI50 is the concentration that inhibits growth by half. Read a low GI50 as greater sensitivity of the cells. The term IC50 denotes the concentration needed to halve the response being measured. On to `CCCCCCCC(=O)SCC/C=C/[C@@H]1CC(=O)NCc2nc(cs2)C2=N[C@@](C)(CS2)C(=O)N[C@@H](C(C)C)C(=O)O1` [LARGAZOLE], for which the GI50 in series [1] (Homo sapiens, MOLT-4, 72 h) is 16.2 nM; with U-937 (Homo sapiens, U-937, 72 h), 16.8 nM; in the series on DU-145 (Homo sapiens, DU-145, 72 h), 11 nM. Further, the IC50 at Histone deacetylase 7 was over 10 µM; at Histone deacetylase 4, over 10 µM; at Histone deacetylase 5 it was over 10 µM; on Histone deacetylase 9, over 10 µM; at Histone deacetylase 2, 1010 nM; at Histone deacetylase 11, over 10 µM. For the same compound, the IC50 on Histone deacetylase 1 is 69.8 nM; on Histone deacetylase 8 it was over 10000 nM; in [3] it was 2210 nM. Further, the GI50 at 72 h in [2] was determined as 82.5 nM; in series [4] it was 39.7 nM.
Consider `C/C=C1\NC(=O)C(CS)NC(=O)[C@@H](C(C)C)NC(=O)C[C@@H](/C=C/CCS)OC(=O)[C@H](C(C)C)NC1=O` (single isomer, unassigned) [FR-135313], for which the IC50 in series [5] was 149 nM; at Histone deacetylase 7 it was 1.76 µM; at Histone deacetylase 4, 9.57 µM; on Histone deacetylase 5, over 10 µM; at Histone deacetylase 9, over 10 µM; at Histone deacetylase 2, 1.4 nM. Also, the values for the IC50 (on Histone deacetylase 11; on Histone deacetylase 8; in series [3]) were 2.36 µM, 25 nM and 3.9 nM, respectively.
For `C/C=C1\NC(=O)[C@H]2CSSCC/C=C/[C@H](CC(=O)N[C@H](C(C)C)C(=O)N2)OC(=O)[C@H](C(C)C)NC1=O` [ROMIDEPSIN], the IC50 at Histone deacetylase 7 is over 10 µM; on Histone deacetylase 4, over 10 µM; at Histone deacetylase 5 it was over 10 µM; on Histone deacetylase 9, over 10 µM; on Histone deacetylase 11, over 10 µM; at Histone deacetylase 1, 1050 nM. The IC50 in series [3] was determined as 11 nM. For the same compound, the values for the concentration for 50% growth inhibition (GI50) at 72 h in series [2] and in [4] were 5.39 nM and 4.89 nM, respectively.
With `O=C(CCCCCCC(=O)Nc1ccccc1)NO` [VORINOSTAT], the 50% growth inhibitory concentration (GI50) in series [1] was 542 nM; with U-937, 1460 nM; in the series on DU-145, 1590 nM. The results for the GI50 at 72 h in [2] and in series [4] were 6080 nM and 1650 nM, respectively.
